In PMC7041903, “Isothermal Titration Calorimetry Enables Rapid Characterization of Enzyme Kinetics and Inhibition for the Human Soluble Epoxide Hydrolase” (Analytical Chemistry, 2019):

Assays:
[1] = target: T1, human soluble epoxide hydrolase (hsEH) (Homo sapiens, UniProt P34913); assay: single-injection ITC enzyme kinetics (KM; saturation not reached); format: biochemical
T1 construct: gene EPHX2; C-terminal domain (CTD)
T1 sequence (P34913 230-555 limits assumed): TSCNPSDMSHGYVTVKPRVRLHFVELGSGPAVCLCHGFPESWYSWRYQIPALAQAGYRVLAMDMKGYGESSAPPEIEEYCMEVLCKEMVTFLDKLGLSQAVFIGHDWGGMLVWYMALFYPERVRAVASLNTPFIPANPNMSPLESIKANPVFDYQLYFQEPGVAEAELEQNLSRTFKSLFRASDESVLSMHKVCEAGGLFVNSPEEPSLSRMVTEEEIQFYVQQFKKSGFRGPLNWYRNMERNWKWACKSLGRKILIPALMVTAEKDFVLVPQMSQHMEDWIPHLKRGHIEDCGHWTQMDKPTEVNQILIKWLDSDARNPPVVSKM

[2] = target: T1, human soluble epoxide hydrolase (hsEH); assay: single-injection ITC enzyme kinetics (KM); format: biochemical

SMILES	Km [1]	Km [2]
CCCCC/C=C\C/C=C\C/C=C\CC1OC1CCCC(=O)O (stereo not shown) [5(6)EET]	46.6 ± 11 µM	
CCCCC/C=C\C/C=C\CC1OC1C/C=C\CCCC(=O)O (stereo not shown) [8(9)EET]		23.1 ± 2.39 µM
CC/C=C\C/C=C\C/C=C\CC1OC1C/C=C\CCCC(=O)O (stereo not shown) [8(9)EpETE]		9.74 ± 0.13 µM
CCCCC/C=C\CC1OC1C/C=C\C/C=C\CCCC(=O)O (stereo not shown) [11(12)EET]		1.74 ± 0.2 µM
CCCCCC1OC1C/C=C\C/C=C\C/C=C\CCCC(=O)O (stereo not shown) [14(15)EET]		12.9 ± 1.94 µM
CCC1OC1C/C=C\C/C=C\C/C=C\C/C=C\CCCC(=O)O (stereo not shown) [17(18)EpETE]		26.4 ± 4.05 µM
CCC1OC1C/C=C\C/C=C\C/C=C\C/C=C\C/C=C\CCC(=O)O (stereo not shown) [19(20)EpDPE]		26.6 ± 1.21 µM
